The source of these data is patent US9573899B2, “USP7 inhibitor compounds and methods of use” (Genentech, Inc., priority 2015, dated 2017).

As usually defined, the IC50 is the concentration at which inhibition is half-maximal.

Assay [1] addresses T1, USP7, full-length, native C-Terminus (Homo sapiens, UniProt Q93009).
T1 construct: USP7, full-length, native C-Terminus, 0.2 nM
Nature of the assay: Biochemical USP7 assay with Ubiquitin-Rho110 substrate (USP7_Ub-Rho110 Fluor). The settings on record: no pre-incubation; 1 hour reaction at room temperature; read-out: USP7 Ub-Rho110 Fluor (IC50). How it is done: (§1) Biochemical USP7 assays using Ubiquitin-Rho110 as a substrate: The final assay conditions were as follows: The Reaction Buffer consisted of: 50 mM Tris (pH 7.5), 0.01% (v/v) Triton X-100, 2.5 mM Dithiothreitol, 0.1% (w/v) bovine gamma globulin (Sigma cat #G5009-25G); USP7, full-length, native C-Terminus, 0.2 nM; the substrate, Ubiquitin-Rho110 (Boston Biochem cat #U-555), 1 uM. Reactions were carried out for 1 hour at room temperature, in black 20 μL volume polystyrene ProxiPlate 384 F Plus® (PerkinElmer cat #6008260).
(§2) Test compounds, including a control USP7 inhibitor (Ub-aldehyde, Boston Biochem cat #U-201) were serially diluted in DMSO, in 384 well clear V-bottom polypropylene plates (Greiner cat #781280). Compounds in DMSO were diluted 10-fold into Reaction Buffer, to achieve 3-fold the final desired concentration. The substrate, Ubiquitin-Rho110 (Boston Biochem cat #U-555), was prepared at 3 μM (3-fold the final concentration) and 5 ul was dispensed into the reaction plate. 5 ul of the compounds (diluted in Reaction Buffer at 3-fold the final concentration) were transferred to the reaction plate. 5 ul of 0.6 nM USP7 (diluted in Reaction Buffer at 3-fold the final concentration) was transferred to the reaction plate to initiate the reaction. After 1 hour incubation at room temperature the reaction was quenched by the addition of 5 ul of 400 mM acetic acid. The enzymatic product was measured by quantifying the fluorescence signal of cleaved Rhodamine-110 using excitation at 485 nm and emission at 535 nm. When pre-incubation of USP7 with compounds was required, the order of addition of reagents was modified to pre-mix the compounds with USP7 (with a 1 hour incubation period), prior to the addition of the substrate and the initiation of the reaction period. Percentage inhibition values were calculated relative to a no enzyme control and a uninhibited enzyme control. Curve fitting and IC50 calculations were carried out using Genedata Screener software.

For assay [2], the target named is T1, USP7, full-length, native C-Terminus. Nature of the assay: Biochemical USP7 assay with Ubiquitin-Rho110 substrate, compounds pre-incubated with USP7 (USP7_Ub-Rho preInc). The settings on record: compounds pre-mixed with USP7, 1 hour incubation, before substrate; read-out: USP7 Ub-Rho preInc (IC50). How it is done:
as §1, §2

Assay [3] addresses USP7 catalytic domain (Homo sapiens, UniProt Q93009). As to the kind of experiment: Ub-Rho110 DUB assay, Table 2, USP7 catalytic domain. The assay is classed as biochemical. The settings on record: read-out: Ub-Rho110 IC50, USP7 cat.
For assay [4], the target named is T2, USP7 (Homo sapiens, UniProt Q93009).
T2 construct: USP7, full-length, native C-Terminus, 0.2 nM
Nature of the assay: Ub-Rho110 DUB assay, Table 2, USP7. The assay is classed as biochemical. Conditions: for selectivity of antagonism of USP7 catalytic activity over the DUBs evaluated: conclusion from Table 2 (USP7, USP7 cat, USP47, USP5).

Assay [5] addresses T3, USP5 (Homo sapiens, UniProt P45974).
T3 sequence (P45974 1-858): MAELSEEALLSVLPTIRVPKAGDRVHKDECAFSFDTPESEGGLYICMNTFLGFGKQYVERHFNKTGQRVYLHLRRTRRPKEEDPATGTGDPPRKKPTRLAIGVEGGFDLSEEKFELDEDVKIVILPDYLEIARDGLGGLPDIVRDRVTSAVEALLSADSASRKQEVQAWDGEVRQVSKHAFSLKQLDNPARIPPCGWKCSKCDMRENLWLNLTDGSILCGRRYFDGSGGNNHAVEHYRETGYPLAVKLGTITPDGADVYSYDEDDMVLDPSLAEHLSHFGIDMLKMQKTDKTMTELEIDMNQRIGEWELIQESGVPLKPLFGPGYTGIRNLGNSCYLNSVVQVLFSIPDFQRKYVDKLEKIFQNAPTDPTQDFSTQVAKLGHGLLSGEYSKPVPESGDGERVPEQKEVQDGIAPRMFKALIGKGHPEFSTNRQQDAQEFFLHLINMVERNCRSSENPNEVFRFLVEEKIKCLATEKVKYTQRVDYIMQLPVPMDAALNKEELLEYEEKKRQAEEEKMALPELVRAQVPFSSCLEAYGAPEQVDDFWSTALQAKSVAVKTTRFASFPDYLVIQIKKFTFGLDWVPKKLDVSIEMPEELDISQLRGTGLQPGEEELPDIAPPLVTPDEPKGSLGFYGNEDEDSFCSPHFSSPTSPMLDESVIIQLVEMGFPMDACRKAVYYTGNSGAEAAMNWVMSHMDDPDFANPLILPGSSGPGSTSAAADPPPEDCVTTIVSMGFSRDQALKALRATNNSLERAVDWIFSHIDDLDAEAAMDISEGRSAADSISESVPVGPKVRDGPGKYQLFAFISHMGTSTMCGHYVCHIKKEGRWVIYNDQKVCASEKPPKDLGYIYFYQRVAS
As to the kind of experiment: Ub-Rho110 DUB assay, Table 2, USP5.

For assay [6], the system named is p53 and p21 in HCT116 colon cancer cell lines. As to the kind of experiment: Western blot of p53 and p21 in isogenic HCT116 cell lines (FIG. 2A). It is filed as cell-based, Human. The settings on record: isogenic HCT116: wild-type, USP7 null. How it is done: In 24-well plates, 0.10-0.15×10^6 (adherent) or 0.5×10^6 (suspension) cells were treated with 15 μM or 2.5 μM compounds, respectively, for 24 h in low serum prior to lysis for Western Blot analysis.
(In general: In western blotting, separated proteins are transferred to a membrane and probed.)

The target in assay [7] is T4, USP47 (Homo sapiens, UniProt Q96K76).
T4 sequence (Q96K76 1-1375): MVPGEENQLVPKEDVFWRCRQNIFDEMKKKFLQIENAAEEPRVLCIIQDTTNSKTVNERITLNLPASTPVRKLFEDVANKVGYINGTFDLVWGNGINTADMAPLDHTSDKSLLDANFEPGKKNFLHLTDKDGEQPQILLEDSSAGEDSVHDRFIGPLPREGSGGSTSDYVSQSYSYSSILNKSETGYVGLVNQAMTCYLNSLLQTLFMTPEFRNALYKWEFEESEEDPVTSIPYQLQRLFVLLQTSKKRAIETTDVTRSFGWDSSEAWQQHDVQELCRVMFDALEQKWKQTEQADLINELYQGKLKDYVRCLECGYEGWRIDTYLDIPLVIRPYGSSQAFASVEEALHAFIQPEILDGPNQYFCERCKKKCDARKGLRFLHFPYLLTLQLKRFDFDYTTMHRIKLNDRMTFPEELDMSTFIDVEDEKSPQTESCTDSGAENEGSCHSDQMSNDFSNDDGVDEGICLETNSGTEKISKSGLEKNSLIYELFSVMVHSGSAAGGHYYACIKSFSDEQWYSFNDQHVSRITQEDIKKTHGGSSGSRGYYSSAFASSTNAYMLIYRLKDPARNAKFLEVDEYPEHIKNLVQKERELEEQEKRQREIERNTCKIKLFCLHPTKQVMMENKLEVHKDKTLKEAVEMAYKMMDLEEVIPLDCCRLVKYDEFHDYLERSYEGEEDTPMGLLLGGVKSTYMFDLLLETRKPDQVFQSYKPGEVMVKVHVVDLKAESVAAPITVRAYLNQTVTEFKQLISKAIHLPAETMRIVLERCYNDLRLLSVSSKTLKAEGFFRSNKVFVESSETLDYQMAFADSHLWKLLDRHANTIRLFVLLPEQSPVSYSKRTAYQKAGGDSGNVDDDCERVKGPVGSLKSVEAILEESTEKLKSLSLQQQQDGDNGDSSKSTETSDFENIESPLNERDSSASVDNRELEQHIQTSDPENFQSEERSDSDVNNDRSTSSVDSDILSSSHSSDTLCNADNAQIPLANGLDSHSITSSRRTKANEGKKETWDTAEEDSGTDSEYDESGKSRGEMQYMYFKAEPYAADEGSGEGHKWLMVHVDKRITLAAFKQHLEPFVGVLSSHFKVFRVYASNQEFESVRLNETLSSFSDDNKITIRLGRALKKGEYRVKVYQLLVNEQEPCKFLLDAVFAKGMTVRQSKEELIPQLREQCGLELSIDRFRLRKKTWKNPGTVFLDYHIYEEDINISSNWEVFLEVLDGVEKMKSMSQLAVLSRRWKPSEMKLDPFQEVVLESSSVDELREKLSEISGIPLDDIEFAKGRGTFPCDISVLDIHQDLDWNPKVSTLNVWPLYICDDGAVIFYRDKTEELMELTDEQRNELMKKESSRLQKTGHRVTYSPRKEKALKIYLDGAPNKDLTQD
As to the kind of experiment: Ub-Rho110 DUB assay, Table 2, USP47. The assay is classed as biochemical.

T2 sequence (Q93009 whole entry): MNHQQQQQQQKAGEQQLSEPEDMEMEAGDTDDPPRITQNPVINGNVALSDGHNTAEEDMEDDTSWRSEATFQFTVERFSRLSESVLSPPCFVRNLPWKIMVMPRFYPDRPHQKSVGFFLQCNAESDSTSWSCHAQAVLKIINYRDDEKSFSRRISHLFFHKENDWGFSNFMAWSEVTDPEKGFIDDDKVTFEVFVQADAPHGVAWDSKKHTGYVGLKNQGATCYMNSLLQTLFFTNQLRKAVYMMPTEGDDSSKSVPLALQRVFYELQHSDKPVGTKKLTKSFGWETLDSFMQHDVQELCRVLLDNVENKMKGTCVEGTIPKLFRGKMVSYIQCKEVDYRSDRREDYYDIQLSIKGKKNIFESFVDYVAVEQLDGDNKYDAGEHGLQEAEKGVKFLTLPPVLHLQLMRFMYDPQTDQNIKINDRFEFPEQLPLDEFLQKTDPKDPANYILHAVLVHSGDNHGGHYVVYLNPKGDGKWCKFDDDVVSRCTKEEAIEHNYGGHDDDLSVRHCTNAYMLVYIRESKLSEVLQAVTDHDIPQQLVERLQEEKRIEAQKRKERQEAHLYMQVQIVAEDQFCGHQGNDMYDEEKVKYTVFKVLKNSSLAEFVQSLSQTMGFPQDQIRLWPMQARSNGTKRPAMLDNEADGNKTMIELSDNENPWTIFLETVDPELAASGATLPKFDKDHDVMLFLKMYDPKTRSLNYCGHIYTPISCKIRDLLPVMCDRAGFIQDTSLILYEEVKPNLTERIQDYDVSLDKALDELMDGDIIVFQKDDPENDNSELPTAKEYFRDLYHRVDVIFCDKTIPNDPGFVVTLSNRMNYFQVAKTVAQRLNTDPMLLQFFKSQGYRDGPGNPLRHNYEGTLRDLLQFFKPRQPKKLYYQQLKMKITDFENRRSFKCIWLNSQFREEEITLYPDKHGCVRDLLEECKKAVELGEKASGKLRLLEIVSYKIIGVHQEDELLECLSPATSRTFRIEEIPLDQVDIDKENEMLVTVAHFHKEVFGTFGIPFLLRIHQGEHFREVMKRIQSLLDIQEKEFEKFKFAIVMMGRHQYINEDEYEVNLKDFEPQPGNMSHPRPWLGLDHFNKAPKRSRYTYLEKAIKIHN
T1 sequence (Q93009 whole entry): as above
Sequence of USP7 catalytic domain (Q93009 214-521 limits assumed): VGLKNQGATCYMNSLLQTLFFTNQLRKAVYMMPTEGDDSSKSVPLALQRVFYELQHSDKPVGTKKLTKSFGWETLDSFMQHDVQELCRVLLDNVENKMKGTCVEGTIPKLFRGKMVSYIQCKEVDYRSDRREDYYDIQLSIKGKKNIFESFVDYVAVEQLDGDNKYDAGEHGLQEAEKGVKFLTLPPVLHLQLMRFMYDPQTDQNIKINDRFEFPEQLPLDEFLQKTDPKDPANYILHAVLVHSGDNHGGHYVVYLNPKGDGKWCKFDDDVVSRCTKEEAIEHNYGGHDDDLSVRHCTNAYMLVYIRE

With `Cc1c(-c2ccc(O)cc2)cnc(N)c1-c1ccc(O)cc1` [Compound 1, 4-[6-amino-5-(4-hydroxyphenyl)-4-methyl-3-pyridyl]phenol], the IC50 in assay [1] stood at 7.7 µM.

As for `CCc1c(-c2ccc(O)cc2)cnc(N)c1-c1ccc(O)cc1` [Compound 2, 4-[6-amino-4-ethyl-5-(4-hydroxyphenyl)-3-pyridyl]phenol], the figures for the IC50 in assay [2] and in assay [1] were 4.6 µM and 3 µM, respectively.

Take `CC(C)c1c(-c2ccc(O)cc2)cnc(N)c1-c1ccc(O)cc1` [Compound 3, 4-[6-amino-5-(4-hydroxyphenyl)-4-isopropyl-3-pyridyl]phenol]: in assay [1], the IC50 turned out to be 197 µM.

On to `COc1c(-c2ccc(O)cc2)cnc(N)c1-c1ccc(O)cc1` [Compound 4, 4-[6-amino-5-(4-hydroxyphenyl)-4-methoxy-3-pyridyl]phenol], for which the half-maximal inhibitory concentration (IC50) in assay [1] amounted to 29.1 µM.

Consider `Nc1ncc(-c2ccc(O)cc2)c(C(F)(F)F)c1-c1ccc(O)cc1` [Compound 5, 4-[6-amino-5-(4-hydroxyphenyl)-4-(trifluoromethyl)-3-pyridyl]phenol], for which the IC50 in assay [2] stood at 7.1 µM; in assay [1], 6 µM.

`CCCc1c(-c2ccc(O)cc2)cnc(N)c1-c1ccc(O)cc1` [Compound 6, 4-[6-amino-5-(4-hydroxyphenyl)-4-propyl-3-pyridyl]phenol]: in assay [1], the IC50 was 35.2 µM.

With `CCc1c(-c2ccc(O)cc2F)cnc(N)c1-c1ccc(O)cc1` [Compound 7, 4-[6-amino-4-ethyl-5-(4-hydroxyphenyl)-3-pyridyl]-3-fluoro-phenol], the IC50 in assay [1] was found to be 4.5 µM.

For `CCc1c(-c2cccc(NC(C)=O)c2)cnc(N)c1-c1ccc(O)cc1` [Compound 8, N-[3-[6-amino-4-ethyl-5-(4-hydroxyphenyl)-3-pyridyl]phenyl]acetamide], the IC50 in assay [1] was found to be 45 µM.

Regarding `Nc1ncc(-c2ccc(O)cc2)c(C2CC2)c1-c1ccc(O)cc1` [Compound 9, 4-[6-amino-4-cyclopropyl-5-(4-hydroxyphenyl)-3-pyridyl]phenol], the IC50 in assay [1] came to 56.6 µM.

On to `CCc1c(-c2ccc(O)cc2)cnc(N)c1-c1ccc(OC)cc1F` [Compound 10, 4-[6-amino-4-ethyl-5-(2-fluoro-4-methoxy-phenyl)-3-pyridyl]phenol], for which the IC50 in assay [2] was determined as 13 µM; in assay [1], 7.5 µM.

For `CCc1c(-c2ccc(O)cc2)cnc(N)c1-c1ccc(O)cc1F` [Compound 11, 4-[2-amino-4-ethyl-5-(4-hydroxyphenyl)-3-pyridyl]-3-fluoro-phenol], in assay [1], the IC50 was over 20 µM.

For `CCc1c(-c2cccc(CN(C)C)c2)cnc(N)c1-c1ccc(O)cc1` [Compound 12, 4-[2-amino-5-[3-[(dimethylamino)methyl]phenyl]-4-ethyl-3-pyridyl]phenol], the IC50 in assay [1] came out at 23.9 µM.

For the compound `CCc1c(-c2ccc(O)cc2)cnc(N)c1-c1ccc(COC)cc1` [Compound 25, 4-[6-amino-4-ethyl-5-[4-(methoxymethyl)phenyl]-3-pyridyl]phenol], the 50% inhibitory concentration (IC50) in assay [3] was over 63.3 µM; in assay [4], over 63.3 µM; in assay [5], over 200 µM; in assay [7], over 200 µM. The “selectivity of antagonism of USP7 catalytic activity over the DUBs evaluated” value in assay [4] is recorded as “ineffective in antagonizing the activity of any DUB evaluated”. In addition, in assay [6], the “stabilization of p53 and p21 (western blot)” value (from here on “stabilization of p53 and p21”) was “stabilize p53 and p21”.

Regarding `CCc1c(-c2ccc(C(N)=O)cc2)cnc(N)c1-c1ccc(O)cc1` [Compound 45, 4-[6-amino-4-ethyl-5-(4-hydroxyphenyl)-3-pyridyl]benzamide], the IC50 is 1.3 µM in assay [3]; 2.6 µM in assay [2]; 2.9 µM in assay [4]; over 200 µM in assay [5]; over 200 µM in assay [7]. Besides, in assay [4], the “selectivity of antagonism of USP7 catalytic activity over the DUBs evaluated” value is “selective antagonists of USP7 catalytic activity”. The “stabilization of p53 and p21” value in assay [6] was “not”.

In the case of `CCc1c(-c2ccc(C(=O)NC)cc2)cnc(N)c1-c1ccc(O)cc1` [Compound 81, 4-[6-amino-4-ethyl-5-(4-hydroxyphenyl)-3-pyridyl]-N-methyl-benzamide], the IC50 in assay [3] is 0.53 µM; in assay [2] it was 3.3 µM; in assay [4], 1.4 µM; in assay [7], over 200 µM.

For `CCc1c(-c2ccc(C(=O)NC)nc2)cnc(N)c1-c1ccc(O)cc1` [Compound 92, 5-[6-amino-4-ethyl-5-(4-hydroxyphenyl)-3-pyridyl]-N-methyl-pyridine-2-carboxamide], in assay [2], the IC50 stood at 1.5 µM. For the same compound, the “stabilization of p53 and p21” value in assay [6] is “stabilize p53 and p21”.
